In experiment [1] the test system is primary human megakaryocytes. The experiment in a line: Platelet production from human cord blood CD34+-derived megakaryocytes. The format is cell-based. The settings on record: 10 μM, 24 h. The method, then: Human CD34+ cord blood cells were obtained from the National Disease Research Interchange (NDRI, Philadelphia, Pa.). Cells were plated at 2.5×10^5 cells per well in a 12-well plate and cultured in serum-free medium as previously described (Zeuner et al., “Chemotherapy-induced Thrombocytopenia Derives from the Selective Death of Megakaryocyte Progenitors and Can Be Rescued by Stem Cell Factor,” Cancer Res 67:4767-4773 (2007), which is hereby incorporated by reference in its entirety) and supplemented with 100 ng/mL of rhTPO. After 14 days in culture, megakaryocytes were identified by staining with a CD61-FITC antibody and analyzed on a BD Biosciences FACSCalibur flow cytometer. Data were analyzed using FlowJo software (Treestar, Ashland, Oreg.). Cell images were captured using an inverted microscope (Olympus IX81). Platelets were isolated from megakaryocytes by centrifugation at 150 xg for 10 min. Supernatants underwent sequential centrifugation (500 xg for 10 min and 1000×g for 10 min). The remaining platelet pellet was fixed then permeabilized with a CD61 or CD41 antibody. 7-AAD (BD Pharmingen) was added for 10 min before analyzing the cells by flow cytometry. Platelets were identified using three well-described parameters (Patel et al., “The Biogenesis of Platelets from Megakaryocyte Proplatelets,” J Clin Invest 115:3348-3354 (2005); Breton-Gorius et al., “Expression of Platelet Proteins During the In Vitro and In Vivo Differentiation of Megakaryocytes and Morphological Aspects of Their Maturation,” Semin Hematol 23:43-67 (1986); Ogura et al., “Establishment of a Novel Human Megakaryoblastic Leukemia Cell Line, MEG-01, With Positive Philadelphia Chromosome,” Blood 66:1384-1392 (1985) and Franks et al., “A Fluorescence Microscopy Method for Quantifying Levels of Prostaglandin Endoperoxide H Synthase-1 and CD-41 in MEG-01 Cells,” Biol Proced Online 3:54-63 (2001), each of which is hereby incorporated by reference in its entirety), size (using normal human platelets as a control), presence of CD61 or CD41 and lack of DNA as determined by the absence of 7-AAD staining Ten thousand platelet events were collected and platelets were quantified by rate (platelet events/second) (Chung et al., “Platelet Activation in Acute, Decompensated Congestive Heart Failure,” Thromb Res 120:709-713 (2007), which is hereby incorporated by reference in its entirety.

In experiment [2] the test system is primary mouse megakaryocytes. The experiment in a line: DNA content analysis of primary mouse megakaryocytes. It is filed as cell-based. As to the method: Bone marrow was isolated from the femora of male C57BL/6 mice (Jackson Laboratories, Bar Harbor, Me.) and plated at a concentration of 1×10^6 cells per well in 12-well plates in IMDM (Iscove's Modified Dulbecco's Media, Invitrogen) with 20% BIT 9500 (BSA, insulin, transferrin) and supplemented with 100 ng/mL of rhTPO. Cells were cultured for 5 days, following which 15d-PGJ2 (10 μM) was added to the culture medium for 24 h. On the sixth day, cells were examined by phase-contrast microscopy using an inverted microscope (Olympus IX81) and images were captured using SPOT RT software (New Hyde Park, N.Y.). Megakaryocytes were identified by preincubating with anti-mouse CD16/32 (FcγR-blocking antibody) and then incubating with PE-conjugated hamster anti-mouse CD41 antibody.
Cells were fixed in 95% ethanol, treated with RNAse (Sigma) followed by 20 μg/mL propidium iodide (Sigma) to stain DNA, and analyzed by flow cytometry.

Experiment [3] concerns C57BL/6 mice. The experiment in a line: Circulating platelet number in unirradiated mice. The following applies: unirradiated mice, 1 mg/kg IV for 4 consecutive days. The format is in vivo, mouse (C57BL/6). The method, then:
Seven or 8-week-old male C57BL/6 mice (Jackson Laboratories) were either exposed to 5 Gy cesium (Cs^137) total body irradiation (TBI) using a Model 8114 6000 Curie Shepherd Cs^137 irradiator (approximately 3200 Curie sealed Cs^137 source) with a dose rate of […] or left unexposed. Mice (n=4) received intravenous injections of vehicle (8% DMSO) or 15d-PGJ2 (1 mg/kg) or CDDO-Me (250 μg/kg) for 4 consecutive days from day 1 (days 1, 2, 3 and 4 post-irradiation). Blood was obtained from the aorta or the orbital sinus. Platelets were counted prior to radiation exposure and after radiation exposure on day 10, day 22, and day 31 in Example 7, or days 4, 10, 16, and 21 in Example 9 using the Heska® CBC-Diff™ Veterinary Analyzer (Fort Collins, Colo.). Data are expressed as average platelet counts from two separate experiments. For the unirradiated mice, platelets were counted on day 4, day 10, and day 15 in Example 7 or on the same days in Example 9.

One compound from patent US9012439B2, “Use of electrophilic compounds for inducing platelet production or maintaining platelet function” (University of Rochester, priority 2007, dated 2015) can be followed below.

As to `CCCCCC=CC=C1C(=O)C=C[C@@H]1CC=CCCCC(=O)O` [15d-PGJ2, 15-deoxy-Δ^12,14 prostaglandin J2], the “number of platelets generated from human megakaryocytes” value in experiment [1] (CD61+ cells from cord blood CD34+ cells) is on record as “doubled”. Further, the proplatelet formation entry in experiment [1] (human megakaryocytes, microscopy) is “induced proplatelet formation”. In experiment [2] (by 24 h), the “primary mouse megakaryocyte ploidy” value is “enhanced primary mouse megakaryocyte ploidy”. Also, the DNA content entry in experiment [2] (primary mouse megakaryocytes, 10 μM, 24 h) is given as “increased DNA content”. The “platelet numbers compared with vehicle” value in experiment [3] is listed as “higher platelet numbers”.
